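Interpolation was linear, between the two tested concentrations surrounding the appropriate level; five concentrations were tested over 48 hours in 96-well plates. GI50 marks 50% less growth. TGI: concentration producing complete growth inhibition.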
Legend:
Assay in all cases: NCI tumour cell line growth inhibition, 48 h
[1] = test system: A498 renal
[2] = test system: HT29 colon
[3] = test system: K-562 leukemia
[4] = test system: MOLT-4 leukemia
[5] = test system: NCI-H522 lung
[6] = test system: OVCAR-5 ovarian
[7] = test system: RXF 393 renal
[8] = test system: SF-295 CNS
[9] = test system: SNB-19 CNS
[10] = test system: UACC-62 melanoma

Row | SMILES | GI50 [1] | TGI [1] | GI50 [2] | TGI [2] | GI50 [3] | TGI [3] | GI50 [4] | TGI [4] | GI50 [5] | TGI [5] | GI50 [6] | TGI [6] | GI50 [7] | TGI [7] | GI50 [8] | TGI [8] | GI50 [9] | TGI [9] | GI50 [10] | TGI [10]
1 | O=C(O)c1c(=O)cccc2ssc12 | 1.98 µM | 3.54 µM | 1.89 µM | 3.64 µM | 2.04 µM | 5.51 µM | 2.13 µM | 5.11 µM | 1.61 µM | 3.24 µM | 1.71 µM | 3.45 µM | 1.91 µM | 3.39 µM | 1.67 µM | 3.17 µM | 1.92 µM | 3.79 µM | 2.09 µM | 4.59 µM
2 | COc1cc(C2=N/C(=C/c3cccs3)C(=O)O2)cc(OC)c1OC | – | > 100 µM | – | > 100 µM | – | > 100 µM | – | > 100 µM | – | > 100 µM | – | > 100 µM | – | > 100 µM | – | > 100 µM | – | > 100 µM | – | > 100 µM
3 | C=C(CO)[C@@H]1CC[C@]2(COC3CCCCO3)CC[C@]3(C)[C@H](CC[C@@H]4[C@@]5(C)C=C(C=O)C(=O)C(C)(C)[C@@H]5CC[C@]43C)[C@@H]12 (stereo not given in full) | 0.234 µM | 0.938 µM | 0.327 µM | 1.1 µM | 0.316 µM | 1.28 µM | 0.307 µM | 1.21 µM | 0.205 µM | 0.487 µM | 0.232 µM | 0.853 µM | 0.172 µM | 0.334 µM | 0.506 µM | 1.79 µM | 0.414 µM | 1.44 µM | 0.177 µM | 0.386 µM
4 | CCCN(CCC)c1ccc(/C=N/NC(=O)c2cccnc2)c(OC)c1 | 2.27 µM | 17.9 µM | 15.8 µM | 55 µM | 22.2 µM | > 100 µM | 22.8 µM | 51.7 µM | 20.3 µM | 56.9 µM | 26.5 µM | > 100 µM | 28.7 µM | 84.8 µM | 19 µM | 77.8 µM | 41.6 µM | > 100 µM | 16.2 µM | 45.6 µM
